Source: patent US8580534B2, “Method for incorporation of two oxygen atoms into digested peptides using peptidases” (The University of North Dakota, priority 2006, dated 2013)

Experiments:
[1] = test system: apomyoglobin peptide that has a lysine residue at the C-terminus (Lys-peptide); experiment: 18O atom incorporation into apomyoglobin Lys-peptides by LC/MS; assay type: biochemical, Horse
Description: (§1) We semi-quantitatively measured the rate of ^18O atom incorporation into Lys-C and tryptic peptides derived from apomyoglobin. This was done to test whether the increased rate of carboxyl oxygen exchange noted for the reaction of Ac-Lys-OH at acidic pH could be generalized to peptide substrates. Apomyoglobin (34 μg) was digested for 16 hours at 25° C. with either 1 μg of Lys-C or trypsin in 100 mM ammonium bicarbonate in H2^16O solvent. The digestion was stopped by adding formic acid to a final concentration of 1% and by boiling the reaction mixture for 2 minutes. The resulting Lys-C and tryptic peptides were lyophilized and used in the following experiments.
(§2) The rate of the carboxyl oxygen exchange reaction into the Lys-C and tryptic peptides by Lys-C and trypsin, respectively, were semi-quantitatively measured by looking at the rate of ^18O atom incorporation into the carboxyl termini of the peptides by LC/MS (described below). The Lys-C and tryptic digests (both 1.5 μg) were incubated with Lys-C and trypsin (both 0.03 μg), respectively, in H2^18O at 30° C. buffered (see above) at pH 5.0 or 9.0 for Lys-C and pH 6.0 or 8.0 for trypsin for various reaction times (1 minute-60 minutes). The total reaction volume was 50 μL. Aliquots (5 μL) of the reaction mixtures were taken after 1, 5, 10, and 60 minutes. The reactions were stopped by mixing with 40 μL of 10% formic acid and by heating at 95° C. for 2 minutes. After the heat treatment, the solvents were evaporated in the speed-vac concentrator and the samples were stored at −20° C. until use.
The stored ^18O labeled peptide mixtures were reconstituted in 20 μL of aqueous 0.1% trifluoroacetic acid (TFA), desalted by a C18 ZipTip as per the manufacturer's instructions (Millipore, Bedford, Mass.), and subjected to LC/MS analysis using an UltiMate nano HPLC system (Dionex, San Francisco, Calif.) interfaced to a QStar quadrupole/time of flight mass spectrometer (Applied Biosystems-MDS Sciex, Foster City, Calif.), as described previously. Briefly, the peptide mixture (5 μl) was injected directly into a reverse-phase analytical column (0.075×60 mm, New Objective Inc., Woburn, Mass.) packed with Jupiter C18 media (Phenomenex, Torrance, Calif.), washed with 2% acetonitrile/0.1% formic acid (v/v) in water for 15 minutes at flow rate of 2 μL/min. The peptides were then eluted with a 40 minute linear gradient of 2% acetonitrile/0.1% formic acid (v/v) in water to 40% acetonitrile/0.1% formic acid (v/v) in water at a flow rate of 200 nL/min. The column effluent was directed on-line to a nano-electrospray ion source. The total ion current was obtained in the mass range of m/z 400-1600 in the positive ion mode. The electrospray and orifice voltages were 2050V and 65V, respectively.

[2] = amidase activity (hydrolysis of Ac-Lys-NH2 in H2^18O); assay type: biochemical; settings: 10 mM Ac-Lys-NH2, 25° C., 95% H2^18O, within the pH range examined
Description: The amidase activity of Lys-C and trypsin was measured by monitoring the initial rate of hydrolysis of Ac-Lys-NH2 in H2^18O. Ac-Lys-NH2 (10 mM) was incubated with 0.2 uM Lys-C or 1 uM trypsin at 25° C. in 95% H2^18O at various pHs. The buffer solutions used were the same as described above for the carboxyl oxygen exchange reactions. The duration of the reaction was 5 min for Lys-C and 20 min for trypsin. The single ^18O atom incorporated reaction product, Ac-Lys-^18OH, was quantified after addition of a [^13C2]Ac-Lys-OH internal standard (0.75 μg) by stable isotope dilution tandem mass spectrometry, as described below. All reactions were carried out in triplicate.
(§3) An Agilent 1100 HPLC system (Palo Alto, Calif.) coupled to an API 3000 triple quadrupole mass spectrometer equipped with a TurbolonSpray™ ion source (Applied Biosystems-MDS-Sciex, Foster City, Calif.) was used to quantify Ac-Lys-^18OH. […]
The ion spray voltage and the ion source probe temperature were set at 5 kV and 400° C., respectively. […] The precursor and fragment ions monitored were m/z 191 (Ac-Lys-^18OH+H) and 149 (H-Lys-^18OH+H) for Ac-Lys-^18OH and m/z 191 ([^13C2]Ac-Lys-OH+H) and 147 (H-Lys-^16OH+H) for [^13C2]Ac-Lys-OH, respectively. […]

[3] = pH dependency of the carboxyl oxygen exchange reaction (18O incorporation into Ac-Lys-OH); assay type: biochemical; settings: 10 mM Ac-Lys-OH, 1 μM enzyme, 25° C., 95% H2^18O, pH 4.0-9.0 examined
Description: The initial rate of carboxyl oxygen exchange reaction catalyzed by Lys-C and trypsin was determined by monitoring the rate of ^18O atom incorporation into the carboxyl terminus of Ac-Lys-OH. For the pH studies, a 10 mM solution of Ac-Lys-OH in aqueous buffers at different pHs was incubated with 1 μM Lys-C or trypsin at 25° C. in 95% H2^18O buffered at various pHs. The buffer solutions used were 50 mM citrate at pH 4.0, 5.0 and 6.0 (pH adjusted by addition of NaOH), 50 mM phosphate at pH 7.0 and 8.0 (pH adjusted by addition of NaOH) and 50 mM Tris at pH 9.0 (pH adjusted by addition of HCl). The duration of the reaction was 5 minutes for Lys-C and 20 minutes for trypsin. […] The single ^18O atom incorporated reaction product, Ac-Lys-^18OH, in the reconstituted reaction solution was then quantified by stable isotope dilution tandem mass spectrometry, as described below. […]
as §3
(§4) Amounts of Ac-Lys-^18OH in the reaction mixture were determined from the chromatographic peak area ratios of the analyte over the internal standard, assuming identical ionization efficiencies and identical yields of fragment ions for Ac-Lys-^18OH and [^13C2]Ac-Lys-OH. […]

[4] = steady-state kinetic parameters for the carboxyl oxygen exchange reaction; assay type: biochemical
Description: The steady-state kinetic parameters for the carboxyl oxygen exchange reaction by Lys-C and trypsin were obtained at two different pHs (pH 9.0 and 5.0 for Lys-C and pH 8.0 and 6.0 for trypsin). Ac-Lys-OH (0.0625-10 mM) was incubated with 1 uM Lys-C or trypsin at 30° C. in 95% H2^1 80 buffered at various pHs (described above). The total volume of the reaction was 20 μL. The duration of the reaction was 10 min for Lys-C and 20 min for trypsin. The single ^18O atom incorporated reaction product, Ac-Lys-180H, was quantified after addition of a [^13C2]Ac-Lys-OH internal standard (0.75 μg) by stable isotope dilution tandem mass spectrometry, as described below. All reactions were carried out in triplicate.
Km and Vmax values were calculated by fitting the Michaelis-Menten equation to the experimental data using SigmaPlot 9.01 (Systat Software, Richmond, Calif.). Kcat values were calculated by dividing the obtained Vmax values by the total enzyme amount added to the system.
An Agilent 1100 HPLC system (Palo Alto, Calif.) coupled to an API 3000 triple quadrupole mass spectrometer equipped with a TurbolonSpray™ ion source (Applied Biosystems-MDS-Sciex, Foster City, Calif.) was used to quantify Ac-Lys-^18OH. The reconstituted reaction mixtures were injected (typically 5 μL) onto a reversed-phase C18 column (2.1×150 mm, 5 μm, 300 Å, Vydac) equilibrated with 5% acetonitrile/0.1% HFBA (v/v) in water and then eluted with the same solvent at a flow rate of 200 μL/min. A switching valve (Valco Instrument, Houston, Tex.) was placed between the HPLC system and the mass spectrometer to divert non-volatile salt fractions from the mass spectrometer at the beginning of the run. The switching valve was switched in-line with the mass spectrometer at 3 minutes after the injection. The elution time of Ac-Lys-^18OH was 3.8 minutes.
The ion spray voltage and the ion source probe temperature were set at 5 kV and 400° C., respectively. Nitrogen was used both as a nebulizer and as an auxiliary gas, at flow rates of 3 and 8 L/min, respectively. A multiple reaction monitoring mode was used for monitoring Ac-Lys-^18OH and [^13C2]Ac-Lys-OH. The precursor and fragment ions monitored were m/z 191 (Ac-Lys-^18OH+H) and 149 (H-Lys-^18OH+H) for Ac-Lys-^18OH and m/z 191 ([^13C2]Ac-Lys-OH+H) and 147 (H-Lys-^16OH+H) for [^13C2]Ac-Lys-OH, respectively. […]
as §4, with “[^13C2]Ac-Lys-OH. The experimentally determined amounts of Ac-Lys-^18OH were corrected upward 5%, accounting for 60 incorporation resulting from the H2^18O solvent having a 5% H2^16O content.” for “[^13C2]Ac-Lys-OH.”

[5] = test system: peptide that has an arginine residue at the C-terminus (Arg-peptide); experiment: 18O atom incorporation into apomyoglobin Arg-peptides by LC/MS; assay type: biochemical, Horse; settings: for time to complete incorporation of two ^18O atoms: H2^18O
Description: as §1, §2
The stored ^18O labeled peptide mixtures were reconstituted in 20 μL of aqueous 0.1% trifluoroacetic acid (TFA), desalted by a C18 ZipTip as per the manufacturer's instructions (Millipore, Bedford, Mass.), and subjected to LC/MS analysis using an UltiMate nano HPLC system (Dionex, San Francisco, Calif.) interfaced to a QStar quadrupole/time of flight mass spectrometer (Applied Biosystems-MDS Sciex, Foster City, Calif.), as described previously. […]

Substance: trypsin
- time to complete incorporation of two ^18O atoms ([1]; pH 6.0, 30° C., H2^18O): ≤ 10 min
- dominant result after 1 minute of incubation ([1]; pH 6.0 and 8.0): incorporation of only one ^18O atom
- dominant result of ^18O incorporation ([1]; pH 8.0, 30° C., H2^18O): incorporation of only one ^18O atom
- time to complete incorporation of two ^18O atoms ([1]; pH 8.0, 30° C., H2^18O): > 60 min
- most favorable pH for the amidase activity [2]: 9 pH
- optimum pH of the carboxyl oxygen exchange reaction [3]: 6.0 pH
- kcat/Km of carboxyl oxygen exchange, fold lower than reported kcat/Km for amide hydrolysis ([4]; pH 6.0 versus N-benzoyl-L-lysine amide hydrolysis at pH 8.0): 5.1 fold
- Km, fold smaller at acidic than at alkaline pH ([4]; pH 6.0 versus pH 8.0): about 3 fold
- kcat, fold higher at acidic than at alkaline pH ([4]; pH 6.0 versus pH 8.0): about 5 fold
- rate of the carboxyl oxygen exchange ([4]; pH 9.0): too low
- dominant peak after 1 minute of incubation ([5]; both pH 6.0 and 8.0): two ^18O atoms
- time to complete incorporation of two ^18O atoms ([5]; pH 6.0, 30° C.): ≤ 10 min
- time to complete incorporation of two ^18O atoms ([5]; pH 8.0, 30° C.): 60 min
